Reference: paper PMC4520450, “Procyanidins Negatively Affect the Activity of the Phosphatases of Regenerating Liver” (PLoS ONE, 2015)

Tests used:
PRL-1 = biological target: T1, PRL-1 (Homo sapiens, UniProt Q93096); experiment: DiFMUP phosphatase activity assay for PRLs; type: biochemical; conditions: for IC50: 50 nM PRL-1, 30 min preincubation, 25°C, 24 μM DiFMUP, mean ± SEM (n = 3–5), read-out: IC50 (Ki) PRL-1
T1 construct: His-TEV (cleaved yes); made in house
T1 sequence (Q93096 1-173): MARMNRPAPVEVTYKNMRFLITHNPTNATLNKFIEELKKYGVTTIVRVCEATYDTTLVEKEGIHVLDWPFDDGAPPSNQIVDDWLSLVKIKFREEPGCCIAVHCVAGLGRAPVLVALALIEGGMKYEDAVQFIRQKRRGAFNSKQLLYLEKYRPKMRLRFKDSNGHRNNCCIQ

[1] = test system: HEK293 empty vector cell line; experiment: Transwell cell migration assay; type: cell-based; conditions: 16 h, empty vector cells
Protocol: (§1) To study if procyanidin C2 is able to inhibit PRL-1 and PRL-3 in cells, HEK293 cells were treated in a wound-healing assay (see the experimental procedures). […] As a control the empty vector cell line was again utilized. […] The migration speed was for all cell lines similar when treated with 50 μM of 9. To further corroborate these findings we performed additionally a transwell assay as an alternative way to study cell migration.
(§2) Fig 6 Wound healing abilities of PRL-1 or PRL-3 overexpressing or empty vector control HEK293 cell lines were analyzed in the presence of compound 9 or medium only. Cells were seeded at a concentration of 800,000 cells per insert and procyanidin C2 (9) was added at a concentration of 25 and 50 μM. A) Pictures of the wound gaps were taken at 0 h and 7 h for both conditions (with and without treatment). B) Quantification of the wound healing experiment. Speed of migration is shown for combined data from different replicates, as mean ± SD (n = 38–88). Two-sided t-tests with Welsh correction were performed for p < 0.05. ns = not significant;***: < 0.001; **: < 0.01; *: < 0.05. C) Effect of polyphenolic compounds in a transwell assay on the cell migration of HEK293 empty vector and PRL-3 overexpressing cell lines. Cells were seeded at a concentration of 100,000 cells per insert and procyanidin C2 (9) was added at a final concentration of 25 and 50 μM. Migration was allowed for 16 h before harvesting and staining with calcein AM for fluorescent readout. Mean ± SD (n = 60–72) is shown for combined data from different replicates. Two-sided t-tests with Welsh correction were performed for p < 0.05. ns = not significant. D) Quantification of wound healing experiment including blocking PRL-1 and PRL-3 with analog 3. Speed of migration is shown for combined data from different replicates, as mean ± SD (n = 63–82). Two-sided t-tests with Welsh correction were performed for p < 0.05.
(§3) HEK293 empty vector, PRL-1 and PRL-3 overexpressing cells were kept in selection medium (DMEM medium without Phenol red, supplemented with 10% FBS, 1% glutamine and 0.2% hygromycin and blasticidin) for one week until full confluency. Then, 0.1% tetracycline (1 mg/ml stock solution in ethanol) was added for induction of PRL-1 and PRL-3 expression in HEK293 PRL-1 and HEK PRL-3 wt 24 h prior plating on transwell inserts. For comparison, HEK293 empty vector was also treated with tetracycline. After 24 h, the medium was removed, cells were washed with PBS and starvation medium supplemented with 0.1% tetracycline was added. […] Then, 3x100 μL were taken from each well and transferred to a black assay plates and the relative concentration of the fluorescent product formed in the cells was determined by following the emission at 520 nm with excitation at 452 nm. […]

[2] = test system: PRL-3 overexpressing HEK293 cell line; experiment: Transwell cell migration assay; type: cell-based; conditions: 16 h, PRL-3 overexpressing cells
Protocol: as §1, §2, §3

PRL-3 = biological target: T2, PRL-3 (Homo sapiens, UniProt O75365); experiment: DiFMUP phosphatase activity assay for PRLs; type: biochemical; conditions: 20 μM DiFMUP
T2 construct: His-TEV (cleaved yes); made in house
T2 sequence (O75365 whole entry): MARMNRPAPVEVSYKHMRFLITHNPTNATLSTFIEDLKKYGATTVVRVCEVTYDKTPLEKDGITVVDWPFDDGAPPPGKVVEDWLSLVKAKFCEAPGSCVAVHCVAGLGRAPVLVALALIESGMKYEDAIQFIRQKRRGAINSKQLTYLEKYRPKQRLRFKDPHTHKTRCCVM

| SMILES | IC50 (PRL-1) [nM] | fold higher activity toward PRL-1 compared to PRL-3 (PRL-1; in vitro, from IC50 values) [fold] | cell migration, transwell ([1]; 25 μM) | cell migration, transwell ([1]; 50 μM) | cell migration, transwell ([2]; 25 μM) | cell migration, transwell ([2]; 50 μM) | PRL-3 phosphatase activity compared to the control (PRL-3; 12.5 μM, 30 min incubation, 50 nM enzyme) | inhibition of PRL-3 activity (PRL-3; 25 μM and 50 μM) |
| --- | --- | --- | --- | --- | --- | --- | --- | --- |
| Oc1cc(O)c2c(c1)O[C@H](c1ccc(O)c(O)c1)[C@@H](O)[C@@H]2c1c(O)cc(O)c2c1O[C@H](c1ccc(O)c(O)c1)[C@@H](O)C2 [Procyanidin B3 (8), Procyanidin B3] | 3300 ± 1200 | 38 |  |  |  |  |  |  |
| Oc1cc(O)c2c(c1)O[C@H](c1ccc(O)c(O)c1)[C@@H](O)[C@@H]2c1c(O)cc(O)c2c1O[C@H](c1ccc(O)c(O)c1)[C@@H](O)[C@@H]2c1c(O)cc(O)c2c1O[C@H](c1ccc(O)c(O)c1)[C@@H](O)C2 [Procyanidin C2 (9), Procyanidin C2] | 1800 ± 1100 |  | did not lead to a significant change in cell migration | significant increase in cell migration | did not lead to a significant change in cell migration | significant decrease in migration | 75–85% | inhibited in a concentration dependent manner |
